These results are taken from ChEMBL document CHEMBL4002588, “2,4-Disubstituted quinazolines as amyloid-β aggregation inhibitors with dual cholinesterase inhibition and antioxidant properties: Development and structure-activity relationship (SAR) studies” (Eur J Med Chem, 2017).

In one assay the target is Acetylcholinesterase (Homo sapiens, UniProt P22303).
For the next assay, the target named is Cholinesterase (Homo sapiens, UniProt P06276).
Assay [1] concerns the target T1, Amyloid-beta precursor protein (Homo sapiens, UniProt P05067). The assay can be described thus: Inhibition of HFIP-induced human recombinant amyloid beta (1 to 42 residues) aggregation expressed in Escherichia coli at 25 uM measured over 24 hrs by ThT-based fluorescence spectroscopic method relative to control.
The target of assay [2] is T1, Amyloid-beta precursor protein.
Description: Inhibition of HFIP-induced human recombinant amyloid beta (1 to 40 residues) aggregation expressed in Escherichia coli measured over 24 hrs by ThT-based fluorescence spectroscopic method
Assay [3] shares this target. The assay can be described thus: Inhibition of HFIP-induced human recombinant amyloid beta (1 to 40 residues) aggregation expressed in Escherichia coli at 25 uM measured over 24 hrs by ThT-based fluorescence spectroscopic method relative to control.
Assay [4] can be described thus: Antioxidant activity assessed as DPPH radical scavenging activity at 50 uM relative to control. It counts as functional. (In general: DPPH is a stable violet radical that fades when it is reduced.)
In assay [5] the target is T1, Amyloid-beta precursor protein. The assay can be described thus: Potency index, ratio of curcumin IC50 to test compound IC50 for HFIP-induced human recombinant amyloid beta (1 to 40 residues) aggregation.
For assay [6] the target is unchanged. The assay can be described thus: Inhibition of HFIP-induced human recombinant amyloid beta (1 to 42 residues) aggregation expressed in Escherichia coli assessed as reduction in amyloid beta fibril load at 25 uM after 24 hrs by transmission electron microscopic method.
Assay [7] shares this target. The assay is described as follows: Inhibition of HFIP-induced human recombinant amyloid beta (1 to 42 residues) aggregation expressed in Escherichia coli assessed as reduction in amyloid beta fibril load measured after 24 hrs by ThT fluorescence assay.
Assay [8] shares this target. The assay is described as follows: Inhibition of HFIP-induced human recombinant amyloid beta (1 to 40 residues) aggregation expressed in Escherichia coli assessed as reduction in amyloid beta fibril load at 25 uM after 24 hrs by transmission electron microscopic method.
Assay [9] has the same target. The assay can be described thus: Inhibition of HFIP-induced human recombinant amyloid beta (1 to 40 residues) aggregation expressed in Escherichia coli assessed as reduction in amyloid beta fibril load measured after 24 hrs by ThT fluorescence assay.

By IC50 is commonly meant the concentration needed to halve the response being measured. The low end stands for inhibition by little substance, the high end for a need for much substance. For orientation: inhibition means the share of the control response that was lost under treatment.

Molecules are shown by their SMILES. Calls of active or inactive are those of the source. No cut-off for these calls is given here. Where only a bound is given, the exact number is not on record here.

Chain of Acetylcholinesterase (P22303 whole entry): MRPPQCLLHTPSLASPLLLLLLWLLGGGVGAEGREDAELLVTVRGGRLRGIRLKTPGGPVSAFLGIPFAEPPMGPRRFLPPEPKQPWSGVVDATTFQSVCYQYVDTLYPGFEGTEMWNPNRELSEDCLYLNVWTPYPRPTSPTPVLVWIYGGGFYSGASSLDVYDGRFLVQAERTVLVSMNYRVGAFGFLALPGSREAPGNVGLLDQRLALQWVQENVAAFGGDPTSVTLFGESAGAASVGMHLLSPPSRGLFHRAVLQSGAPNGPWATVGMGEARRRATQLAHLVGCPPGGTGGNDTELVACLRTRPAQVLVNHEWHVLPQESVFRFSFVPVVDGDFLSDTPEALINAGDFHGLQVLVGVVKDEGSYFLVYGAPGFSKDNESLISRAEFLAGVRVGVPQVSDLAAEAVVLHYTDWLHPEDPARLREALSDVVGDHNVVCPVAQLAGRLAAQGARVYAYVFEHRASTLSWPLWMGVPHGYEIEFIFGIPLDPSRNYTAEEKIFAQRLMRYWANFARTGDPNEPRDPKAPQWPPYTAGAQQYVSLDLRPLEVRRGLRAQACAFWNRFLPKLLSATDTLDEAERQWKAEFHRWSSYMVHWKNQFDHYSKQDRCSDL
Chain of Cholinesterase (P06276 whole entry, the tested form may be a part): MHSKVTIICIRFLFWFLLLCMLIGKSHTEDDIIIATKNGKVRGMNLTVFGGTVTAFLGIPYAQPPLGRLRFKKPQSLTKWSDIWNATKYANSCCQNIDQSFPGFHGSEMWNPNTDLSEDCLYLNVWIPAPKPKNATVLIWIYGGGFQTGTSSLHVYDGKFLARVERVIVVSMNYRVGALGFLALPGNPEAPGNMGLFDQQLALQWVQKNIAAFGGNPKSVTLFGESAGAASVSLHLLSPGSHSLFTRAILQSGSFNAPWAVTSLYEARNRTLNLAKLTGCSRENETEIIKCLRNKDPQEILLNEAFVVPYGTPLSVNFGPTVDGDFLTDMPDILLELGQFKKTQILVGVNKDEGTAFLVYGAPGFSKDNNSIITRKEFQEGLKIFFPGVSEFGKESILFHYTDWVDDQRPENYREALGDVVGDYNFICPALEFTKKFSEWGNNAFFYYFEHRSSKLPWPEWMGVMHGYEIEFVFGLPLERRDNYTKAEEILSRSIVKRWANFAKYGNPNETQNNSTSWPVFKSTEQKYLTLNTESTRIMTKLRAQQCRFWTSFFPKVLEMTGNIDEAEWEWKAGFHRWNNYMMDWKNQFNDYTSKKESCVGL
T1 sequence (P05067 whole entry, the tested form may be a part): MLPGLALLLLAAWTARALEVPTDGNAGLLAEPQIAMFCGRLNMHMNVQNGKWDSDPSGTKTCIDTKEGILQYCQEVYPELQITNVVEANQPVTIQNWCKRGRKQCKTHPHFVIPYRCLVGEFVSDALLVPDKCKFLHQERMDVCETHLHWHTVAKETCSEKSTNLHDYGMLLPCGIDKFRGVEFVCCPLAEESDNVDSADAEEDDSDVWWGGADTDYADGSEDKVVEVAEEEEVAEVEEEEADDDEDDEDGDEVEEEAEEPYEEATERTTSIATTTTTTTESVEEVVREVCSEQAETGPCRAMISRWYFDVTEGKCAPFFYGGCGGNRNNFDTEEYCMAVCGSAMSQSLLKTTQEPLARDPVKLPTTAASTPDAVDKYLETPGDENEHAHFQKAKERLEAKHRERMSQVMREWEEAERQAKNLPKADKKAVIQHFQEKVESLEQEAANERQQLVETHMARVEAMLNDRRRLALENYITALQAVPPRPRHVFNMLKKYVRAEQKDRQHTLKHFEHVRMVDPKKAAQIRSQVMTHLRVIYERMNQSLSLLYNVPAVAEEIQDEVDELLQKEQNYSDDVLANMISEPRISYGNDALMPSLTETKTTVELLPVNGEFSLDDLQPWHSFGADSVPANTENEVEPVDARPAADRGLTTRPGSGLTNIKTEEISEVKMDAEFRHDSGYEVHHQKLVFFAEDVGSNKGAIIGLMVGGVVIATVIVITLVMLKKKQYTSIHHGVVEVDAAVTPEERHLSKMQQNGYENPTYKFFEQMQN
Description for Acetylcholinesterase: Inhibition of human AChE using acetylthiocholine iodide as substrate preincubated for 5 mins followed by substrate addition measured for 60 to 300 secs by Ellman's method

Regarding `COc1ccc(CCNc2nc(NC(C)C)nc3ccccc23)cc1OC`, the IC50 is 7.6 µM against Acetylcholinesterase and 7.8 µM at Cholinesterase.
As to `COc1ccc(CNc2nc(N)nc3ccccc23)cc1OC`, the figures for the inhibition in assay [1] and in [3] were 34% and more than 50%, respectively. This compound registered an IC50 in assay [2] of 8.4 µM.
As to `Oc1nc(NCCc2ccccc2)c2ccccc2n1`, in [1], the inhibition result is “inactive”. For the same compound, in assay [4], the Activity is 51.5%. The IC50 in assay [2] is 11.2 µM. For the same compound, in assay [3], the inhibition is more than 50%.
For the compound `CCCNc1nc(NCCc2ccccc2)c2ccccc2n1`, the IC50 against Acetylcholinesterase was 7.2 µM; against Cholinesterase, 5 µM; in assay [2] it was 4.4 µM. Also, the inhibition in assay [1] is 33%; in assay [3], more than 50%.
On to `COc1ccc(CNc2nc(NC(C)=O)nc3ccccc23)cc1OC`, for which the values for the IC50 (against Acetylcholinesterase; against Cholinesterase; in [2]) were 8.5 µM, more than 50 µM and 3.1 µM, respectively. Moreover, the inhibition in assay [1] was less than 10%; in assay [3], more than 50%.
Take `COc1ccc(CNc2nc(NC3CCN(Cc4ccccc4)CC3)nc3ccccc23)cc1OC`: the Ratio IC50 in assay [5] came to 1.3. Besides, the inhibition in assay [1] is 27%; in assay [3] it was more than 50%. In addition, the IC50 in assay [2] was 2.3 µM.
For `Cc1c(C)c2c(c(C)c1O)CCC(C)(C(=O)O)O2` (stereo not given), the Activity in assay [4] came to 99.6%.
As to `CNc1nc(NCCc2ccc(OC)c(OC)c2)c2ccccc2n1`, the IC50 against Acetylcholinesterase worked out at 8.5 µM; against Cholinesterase, 4.5 µM; in assay [2], 6.6 µM. Besides, the inhibition in [1] was 23.1%; in assay [7], “Dose-dependent effect”; in assay [3], more than 50%. Besides, the inhibition result in assay [6] was “Active”.
In the case of `c1ccc(CNc2nc(NC3CC3)nc3ccccc23)cc1`, the IC50 was found to be 6.6 µM on Acetylcholinesterase, 22 µM against Cholinesterase and 5.7 µM in [2]. Further, the figures for the inhibition in assay [1] and in [3] were 31% and more than 50%, respectively.
As for `NC(=O)Cc1nc(NCc2ccccc2)c2ccccc2n1`, the figures for the IC50 against Acetylcholinesterase and at Cholinesterase were 7.2 µM and more than 50 µM, respectively.
As to `Oc1ccc(/C=C/c2cc(O)cc(O)c2)cc1`, in assay [4], the Activity was determined as 41.9%.
For the compound `CCCNc1nc(NCc2ccccc2)c2ccccc2n1`, the IC50 was 7.8 µM on Acetylcholinesterase, 14.4 µM against Cholinesterase and 5 µM in assay [2]. For the same compound, the inhibition was 26% in assay [1] and more than 50% in assay [3].
Take `COc1ccc(CNc2nc(NC3CC3)nc3ccccc23)cc1OC`: the IC50 came out at 7.2 µM against Acetylcholinesterase, 29.8 µM at Cholinesterase and 8.3 µM in [2]. Further, the inhibition in assay [1] is 20%; in assay [3], more than 50%.
Regarding `COc1ccc(CCNc2nc(NC(C)=O)nc3ccccc23)cc1OC`, the IC50 was 7.4 µM at Acetylcholinesterase and more than 50 µM at Cholinesterase.
Consider `Nc1nc(NCc2ccccc2)c2ccccc2n1`, for which the inhibition in assay [1] is less than 10%; in assay [3] it was more than 50%.
As to `COc1ccc(CCNc2nc(CC(N)=O)nc3ccccc23)cc1OC`, the IC50 against Acetylcholinesterase was 12.5 µM; against Cholinesterase, more than 50 µM.
For the compound `CCNc1nc(NCCc2ccccc2)c2ccccc2n1`, the IC50 on Acetylcholinesterase turned out to be 7.6 µM; against Cholinesterase, 3.2 µM; in assay [2] it was 1.4 µM. The inhibition was 47% in [1], more than 50% in [3] and “Dose-dependent effect” in assay [9]. In assay [8], the inhibition result was “Active”.
As to `COc1ccc(CNc2nc(NC(C)C)nc3ccccc23)cc1OC`, the IC50 against Acetylcholinesterase was 6.8 µM; at Cholinesterase, 29.8 µM.
Consider `COc1ccc(CNc2nc(NC(N)=O)nc3ccccc23)cc1OC`, for which the IC50 on Acetylcholinesterase is 8.6 µM; at Cholinesterase, more than 50 µM; in [2], 8.3 µM. Moreover, the inhibition in [1] is 40%; in assay [3], more than 50%.
Turning to `Nc1nc(NCCc2ccccc2)c2ccccc2n1`, the figures for the inhibition in assay [1] and in [3] were 37% and more than 50%, respectively.
`CC(=O)Nc1nc(NCCc2ccccc2)c2ccccc2n1`: the figures for the IC50 at Acetylcholinesterase and at Cholinesterase were 7 µM and more than 50 µM, respectively.
As to `CNc1nc(NCCc2ccccc2)c2ccccc2n1`, the IC50 at Acetylcholinesterase came to 8.7 µM; against Cholinesterase, 5 µM; in assay [2], 2 µM. In addition, the inhibition in [1] was 40%; in assay [3], more than 50%.
As for `COc1ccc(CCNc2nc(N)nc3ccccc23)cc1OC`, the inhibition in [1] was 45%; in assay [3], more than 50%. The same compound gave an IC50 in [2] of 2.7 µM.
The matching figures for `COc1ccc(CNc2nc(N=[N+]=[N-])nc3ccccc23)cc1OC`: less than 10%, more than 50% and 7.2 µM.
In the case of `CCCNc1nc(NCCc2ccc(OC)c(OC)c2)c2ccccc2n1`, the IC50 against Acetylcholinesterase was 7 µM; at Cholinesterase it was 24.9 µM; in assay [2], 4.3 µM. Further, the results for the inhibition in [1] and in assay [3] were 14% and more than 50%, respectively.
For the compound `CNc1nc(NCc2ccccc2)c2ccccc2n1`, the IC50 on Acetylcholinesterase was determined as 8 µM; on Cholinesterase, 18.8 µM.
In the case of `[N-]=[N+]=Nc1nc(NCc2ccccc2)c2ccccc2n1`, the inhibition in [1] was 37%; in [3], more than 50%. This compound also yielded an IC50 in assay [2] of 2.6 µM.
As to `COc1ccc(CCNc2nc(NC3CC3)nc3ccccc23)cc1OC`, the IC50 against Acetylcholinesterase was 7.2 µM; on Cholinesterase it was 5.6 µM; in [2], 4.9 µM. Also, the figures for the inhibition in [1] and in assay [3] were 25% and more than 50%, respectively.
As to `Clc1nc(NCCc2ccccc2)c2ccccc2n1`, the inhibition in [1] is 36%; in assay [3], more than 50%. In assay [2], this compound came in with an IC50 of 5 µM.
In the case of `COc1ccc(CCNc2nc(NC(N)=O)nc3ccccc23)cc1OC`, the results for the IC50 (at Acetylcholinesterase; on Cholinesterase; in assay [2]) were 8.7 µM, more than 50 µM and 14.4 µM, respectively. In addition, the inhibition in [1] is 33%; in assay [3], more than 50%.
In the case of `NC(=O)Nc1nc(NCCc2ccccc2)c2ccccc2n1`, the IC50 is 7.9 µM at Acetylcholinesterase, more than 50 µM on Cholinesterase and 1 µM in assay [2]. The inhibition was 46% in assay [1], more than 50% in assay [3] and “Dose-dependent effect” in assay [9]. In addition, the inhibition result in assay [8] is “Active”.
For `CCNc1nc(NCc2ccccc2)c2ccccc2n1`, the IC50 at Acetylcholinesterase is 7.5 µM; on Cholinesterase, 15.2 µM; in assay [2], 7 µM. The inhibition in assay [1] was 24%; in assay [3], more than 50%.
The corresponding values for `CC(C)Nc1nc(NCc2ccccc2)c2ccccc2n1` are 6.4 µM, 11.7 µM, 4.4 µM, 13% and more than 50%.
As to `NC(=O)Cc1nc(NCCc2ccccc2)c2ccccc2n1`, the results for the IC50 at Acetylcholinesterase and against Cholinesterase were 7.3 µM and 3.5 µM, respectively.
As to `COc1ccc(CCNc2ncnc3ccccc23)cc1OC`, the inhibition was 36% in assay [1] and more than 50% in assay [3]. The IC50 in assay [2] was 12 µM.
For `COc1ccc(CCNc2nc(O)nc3ccccc23)cc1OC`, the inhibition in assay [1] is 32%; in [3], more than 50%. Besides, the Activity in assay [4] came to 33.9%. Moreover, in assay [2], half-maximal inhibition (IC50) was put at 10.4 µM.
For `CC(=O)Nc1nc(NCc2ccccc2)c2ccccc2n1`, the IC50 against Acetylcholinesterase is 7.5 µM; on Cholinesterase, more than 50 µM; in assay [2], 1.9 µM. Moreover, the inhibition in [1] was 31%; in [3], more than 50%.
The corresponding values for `CCCNc1nc(NCc2ccc(OC)c(OC)c2)c2ccccc2n1` are 5.6 µM, 30.4 µM, 1.7 µM, “inactive” and more than 50%.
On to `CCNc1nc(NCCc2ccc(OC)c(OC)c2)c2ccccc2n1`, for which the figures for the IC50 (on Acetylcholinesterase; at Cholinesterase; in assay [2]) were 7.5 µM, 14 µM and 2.9 µM, respectively. In addition, the inhibition in assay [1] was 41%; in assay [3], more than 50%.
As to `c1ccc(CCNc2ncnc3ccccc23)cc1`, the inhibition in [1] is 32%; in [3], more than 50%. In assay [2], this compound gave an IC50 of 11.9 µM.
As for `CCNc1nc(NCc2ccc(OC)c(OC)c2)c2ccccc2n1`, the IC50 against Acetylcholinesterase was 6.3 µM; against Cholinesterase, 25 µM.
As to `Clc1nc(NCc2ccccc2)c2ccccc2n1`, the inhibition in assay [1] is 22%; in assay [3], more than 50%. In assay [2], it took 16.7 µM to reach half-maximal inhibition (IC50).
Regarding `NC(=O)Nc1nc(NCc2ccccc2)c2ccccc2n1`, the IC50 is 8.3 µM at Acetylcholinesterase, more than 50 µM at Cholinesterase and 13.3 µM in assay [2]. Also, the inhibition in [1] was 48%; in assay [3], more than 50%.
Take `COc1ccc(CNc2nc(CC(N)=O)nc3ccccc23)cc1OC`: the IC50 on Acetylcholinesterase was 7.4 µM; at Cholinesterase it was more than 50 µM.
The corresponding values for `CNc1nc(NCc2ccc(OC)c(OC)c2)c2ccccc2n1` are 7.3 µM and 30.5 µM.
